From ChEMBL document CHEMBL1201862, “PubChem BioAssay data set” (2004)
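48-hour exposure; five concentrations; linearly interpolated endpoints. At the GI50, growth is halved.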 The source made the active and inactive calls. No stated cut-off is given here; in the data, active = GI50 up to about 1.1 µM and inactive = higher.

Columns and labels:
Test in all cases: NCI-60 cell line screen, 48 h
HL-60 = system: HL-60
UO-31 = system: UO-31
A549 = system: A549
TK-10 = system: TK-10
SK-MEL-28 = system: SK-MEL-28
SF-539 = system: SF-539
K562 = system: K562
CAKI-1 = system: CAKI-1
LXFL 529 = system: LXFL 529
DMS-273 = system: DMS-273
NCI-H460 = system: NCI-H460
COLO 205 = system: COLO 205
OVCAR-8 = system: OVCAR-8
IGROV-1 = system: IGROV-1
SF-295 = system: SF-295
OVCAR-5 = system: OVCAR-5
KM12 = system: KM12
SR = system: SR
RPMI-8226 = system: RPMI-8226
NCI-H226 = system: NCI-H226
M19-MEL = system: M19-MEL
NCI-H522 = system: NCI-H522
SNB-75 = system: SNB-75
Malme-3M = system: Malme-3M
HCT-116 = system: HCT-116
SK-MEL-2 = system: SK-MEL-2
SW-620 = system: SW-620
DLD-1 = system: DLD-1
SNB-19 = system: SNB-19
M14 = system: M14
LOX IMVI = system: LOX IMVI
HCC 2998 = system: HCC 2998
SF-268 = system: SF-268
RXF 393 = system: RXF 393
HCT-15 = system: HCT-15
MOLT-4 = system: MOLT-4
XF498 = system: XF498
CCRF-CEM = system: CCRF-CEM
HOP-62 = system: HOP-62
UACC-62 = system: UACC-62
OVCAR-3 = system: OVCAR-3
KM-20L2 = system: KM-20L2
EKVX = system: EKVX
HOP-92 = system: HOP-92
DMS-114 = system: DMS-114
SN12C = system: SN12C
HT-29 = system: HT-29
ACHN = system: ACHN
OVCAR-4 = system: OVCAR-4
SK-OV-3 = system: SK-OV-3
A498 = system: A498
SK-MEL-5 = system: SK-MEL-5
NCI-H23 = system: NCI-H23
SNB-78 = system: SNB-78
U-251 = system: U-251
UACC-257 = system: UACC-257
786-0 = system: 786-0

In the case of `Cn1nc2ccc3nccc(NCCNCCCl)c3c2n1`, the GI50 (HL-60) is reported as > 100 µM (inactive), the GI50 (UO-31) is reported as > 100 µM (inactive) and the GI50 (A549) is reported as > 100 µM (inactive). For the same compound, the GI50 (TK-10) was > 100 µM (inactive), the GI50 (SK-MEL-28) was > 100 µM (inactive) and the GI50 (SF-539) was > 100 µM (inactive). For the same compound, the GI50 (K562) was > 100 µM (inactive), the GI50 (CAKI-1) was > 10 µM (inactive) and the GI50 (LXFL 529) was > 100 µM (inactive). For the same compound, the GI50 (DMS-273) was > 100 µM (inactive), the GI50 (NCI-H460) was > 100 µM (inactive) and the GI50 (COLO 205) was > 100 µM (inactive). For the same compound, the GI50 (OVCAR-8) was > 100 µM (inactive), the GI50 (IGROV-1) was > 100 µM (inactive) and the GI50 (SF-295) was > 100 µM (inactive). The GI50 (OVCAR-5) was > 100 µM (inactive), the GI50 (KM12) was > 100 µM (inactive) and the GI50 (SR) was > 100 µM (inactive). The GI50 (RPMI-8226) was > 100 µM (inactive), the GI50 (NCI-H226) was > 100 µM (inactive) and the GI50 (M19-MEL) was > 100 µM (inactive). For the same compound, the GI50 (NCI-H522) was > 100 µM (inactive), the GI50 (SNB-75) was > 100 µM (inactive) and the GI50 (Malme-3M) was > 100 µM (inactive). The GI50 (HCT-116) was > 100 µM (inactive), the GI50 (SK-MEL-2) was > 100 µM (inactive) and the GI50 (SW-620) was > 100 µM (inactive). For the same compound, the GI50 (DLD-1) was > 100 µM (inactive), the GI50 (SNB-19) was > 100 µM (inactive) and the GI50 (M14) was > 100 µM (inactive). For the same compound, the GI50 (LOX IMVI) was > 100 µM (inactive), the GI50 (HCC 2998) was > 100 µM (inactive) and the GI50 (SF-268) was > 100 µM (inactive). For the same compound, the GI50 (RXF 393) was > 100 µM (inactive), the GI50 (HCT-15) was greater than 100 µM and the GI50 (MOLT-4) was > 100 µM (inactive). For the same compound, the GI50 (XF498) was > 100 µM (inactive), the GI50 (CCRF-CEM) was > 100 µM (inactive) and the GI50 (HOP-62) was > 100 µM (inactive). For the same compound, the GI50 (UACC-62) was > 100 µM (inactive), the GI50 (OVCAR-3) was > 100 µM (inactive) and the GI50 (KM-20L2) was > 100 µM (inactive). The GI50 (EKVX) was > 100 µM (inactive), the GI50 (HOP-92) was > 100 µM (inactive) and the GI50 (DMS-114) was > 100 µM (inactive). For the same compound, the GI50 (SN12C) was > 100 µM (inactive), the GI50 (HT-29) was > 100 µM (inactive) and the GI50 (ACHN) was > 100 µM (inactive). For the same compound, the GI50 (OVCAR-4) was > 100 µM (inactive) and the GI50 (SK-OV-3) was > 100 µM (inactive).

`Nc1n[n+](-c2ccccc2)no1` was tested, and the GI50 (HL-60) was 14.9 µM (inactive), the GI50 (A498) was 46 µM (inactive) and the GI50 (UO-31) was 83.4 µM (inactive). The GI50 (A549) was 39.6 µM (inactive), the GI50 (TK-10) was > 100 µM (inactive) and the GI50 (SF-539) was 51.4 µM (inactive). The GI50 (K562) was 4.85 µM (inactive), the GI50 (CAKI-1) was 24.7 µM (inactive) and the GI50 (LXFL 529) was 5.26 µM (inactive). The GI50 (SK-MEL-5) was 52.7 µM (inactive), the GI50 (DMS-273) was 33.2 µM (inactive) and the GI50 (NCI-H460) was 27.6 µM (inactive). The GI50 (COLO 205) was 45.3 µM (inactive), the GI50 (OVCAR-8) was 80 µM (inactive) and the GI50 (IGROV-1) was 24.4 µM (inactive). The GI50 (SF-295) was 33.8 µM (inactive), the GI50 (OVCAR-5) was 40.7 µM (inactive) and the GI50 (KM12) was 10.1 µM (inactive). The GI50 (RPMI-8226) was 26.6 µM (inactive), the GI50 (NCI-H23) was 65.3 µM (inactive) and the GI50 (NCI-H226) was > 100 µM (inactive). For the same compound, the GI50 (M19-MEL) was 46.2 µM (inactive), the GI50 (NCI-H522) was 41.7 µM (inactive) and the GI50 (Malme-3M) was 34.7 µM (inactive). For the same compound, the GI50 (HCT-116) was 28.3 µM (inactive), the GI50 (SW-620) was 45.8 µM (inactive) and the GI50 (DLD-1) was 5.7 µM (inactive). For the same compound, the GI50 (SNB-19) was > 100 µM (inactive), the GI50 (M14) was 32.7 µM (inactive) and the GI50 (SNB-78) was > 100 µM (inactive). For the same compound, the GI50 (LOX IMVI) was 42 µM (inactive), the GI50 (U-251) was 51.4 µM (inactive) and the GI50 (HCC 2998) was 17.4 µM (inactive). For the same compound, the GI50 (SF-268) was 42 µM (inactive), the GI50 (HCT-15) was 28.1 µM and the GI50 (MOLT-4) was 13.3 µM (inactive). The GI50 (UACC-257) was 25.9 µM (inactive), the GI50 (786-0) was 52.1 µM (inactive) and the GI50 (CCRF-CEM) was 31.8 µM (inactive). For the same compound, the GI50 (HOP-62) was 31.6 µM (inactive), the GI50 (UACC-62) was 5.37 µM (inactive) and the GI50 (OVCAR-3) was 47.4 µM (inactive). For the same compound, the GI50 (KM-20L2) was 10.8 µM (inactive), the GI50 (EKVX) was > 100 µM (inactive) and the GI50 (HOP-92) was 25.4 µM (inactive). For the same compound, the GI50 (DMS-114) was 18.3 µM (inactive), the GI50 (SN12C) was 82.4 µM (inactive) and the GI50 (HT-29) was 42.5 µM (inactive). For the same compound, the GI50 (ACHN) was 8.49 µM (inactive), the GI50 (OVCAR-4) was > 100 µM (inactive) and the GI50 (SK-OV-3) was > 100 µM (inactive).
